Where “and” joins values, the source holds several entries; their conditions need not be identical. Identical values can stand only once.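 Step 1: Grow cells in 96-well plates. Step 2: Expose to compound for 48 hours at 5 concentrations. Step 3: Interpolate endpoints linearly; if unreached, use highest concentration. GI50 marks 50% less growth. TGI: concentration producing complete growth inhibition.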
Legend:
Assay in all cases: NCI tumour cell line growth inhibition, 48 h
MDA-N = tested on: MDA-N
KM20L2 colon = tested on: KM20L2 colon
M19-MEL melanoma = tested on: M19-MEL melanoma
P388 leukemia = tested on: P388 leukemia
HOP-18 NSCLC = tested on: HOP-18 NSCLC
DMS 114 small cell lung = tested on: DMS 114 small cell lung
SN12K1 renal = tested on: SN12K1 renal
XF 498 CNS = tested on: XF 498 CNS
DLD-1 colon = tested on: DLD-1 colon
P388/ADR leukemia = tested on: P388/ADR leukemia
RXF-631 renal = tested on: RXF-631 renal

For `O=C1/C(=C/c2ccc3c(c2)OCO3)Sc2scc(-c3ccc(O)c(O)c3)[n+]21`, the TGI (MDA-N) was 9.81 µM.

`O=CNNC(=O)CSc1nc2ccc(I)cc2c(=O)n1Cc1ccccc1` was tested, and the TGI (MDA-N) was greater than 100 µM.

In the case of `COc1cccc2c1C(=O)c1c(O)c3c(c(O)c1C2=O)C[C@@](O)(C(C)=O)C[C@@H]3OC1CC(N(C)C)C(O)C(C)O1` (stereo partly specified), the GI50 (KM20L2 colon) is reported as less than 0.0133 µM, the TGI (KM20L2 colon) is reported as 0.307 µM and 0.367 µM and the TGI (M19-MEL melanoma) is reported as 0.292 µM and 0.039 µM. For the same compound, the TGI (P388 leukemia) was 0.0139 µM, the TGI (HOP-18 NSCLC) was 0.585 µM and 2.17 µM and the TGI (MDA-N) was 0.00154 µM. The GI50 (DMS 114 small cell lung) was less than 0.0199 µM, the TGI (DMS 114 small cell lung) was 0.302 µM and 0.274 µM and the TGI (SN12K1 renal) was 0.0851 µM. The TGI (XF 498 CNS) was 0.403 µM and 0.0877 µM, the TGI (DLD-1 colon) was 3.34 µM and 0.705 µM and the TGI (P388/ADR leukemia) was 0.135 µM.

Compound `Nc1nccc2c1ncn2C1C=C(CO)C(O)C1O` (stereo unspecified) has a GI50 (M19-MEL melanoma) of 7.78 µM, a TGI (M19-MEL melanoma) greater than 1000 µM and a TGI (P388 leukemia) greater than 76.4 µM. The GI50 (DMS 114 small cell lung) was 2.18 µM, the TGI (DMS 114 small cell lung) was greater than 1000 µM and the GI50 (RXF-631 renal) was 902 µM. The TGI (RXF-631 renal) was greater than 1000 µM, the GI50 (XF 498 CNS) was 817 µM and the TGI (XF 498 CNS) was greater than 1000 µM. For the same compound, the GI50 (DLD-1 colon) was 104 µM, the TGI (DLD-1 colon) was greater than 1000 µM and the TGI (P388/ADR leukemia) was 40.8 µM.

Work on `O=C1CSc2sc(=S)sc2S1` yielded a TGI (KM20L2 colon) greater than 100 µM, a TGI (M19-MEL melanoma) greater than 100 µM and a TGI (P388 leukemia) greater than 100 µM. For the same compound, the TGI (HOP-18 NSCLC) was greater than 100 µM, the TGI (DMS 114 small cell lung) was greater than 100 µM and the TGI (SN12K1 renal) was greater than 100 µM. It also gave a TGI (XF 498 CNS) greater than 100 µM, a TGI (DLD-1 colon) greater than 100 µM and a TGI (P388/ADR leukemia) of 97.8 µM.

For `O=C1NC2(NC(=O)C1=O)Nc1ccccc1S2`, the TGI (KM20L2 colon) was greater than 100 µM, the TGI (HOP-18 NSCLC) was greater than 100 µM and the TGI (DMS 114 small cell lung) was 79.8 µM. The TGI (RXF-631 renal) was 47.9 µM and the TGI (DLD-1 colon) was greater than 67.5 µM.

`Cc1cc(O)c2cc3c(O)c(O)ccc3cc2c1` gave a TGI (MDA-N) of 8.86 µM.

`O=[P+](O)c1cccs1` showed a TGI (KM20L2 colon) greater than 100 µM, a TGI (M19-MEL melanoma) greater than 100 µM and a TGI (HOP-18 NSCLC) greater than 100 µM. It also gave a TGI (DMS 114 small cell lung) greater than 100 µM, a TGI (XF 498 CNS) greater than 100 µM and a TGI (DLD-1 colon) greater than 100 µM.

`O=NN(CCCl)C(=O)Nc1ccc(Cl)c(Cl)c1` gave a TGI (KM20L2 colon) greater than 69.3 µM, a TGI (M19-MEL melanoma) greater than 100 µM and a TGI (P388 leukemia) greater than 100 µM. For the same compound, the TGI (HOP-18 NSCLC) was greater than 26.2 µM, the TGI (DMS 114 small cell lung) was greater than 100 µM and the TGI (SN12K1 renal) was greater than 100 µM. The TGI (XF 498 CNS) was 99.7 µM, the TGI (DLD-1 colon) was greater than 100 µM and the TGI (P388/ADR leukemia) was greater than 100 µM.

Compound `CC1C(O)[C@@]2(OC[C@@]34C(=O)CC5(O)[C@H](CCC6Cc7nc8c(nc7C[C@]65C)CC5CC[C@@H]6C7=C[C@H]9O[C@@]%10(O[C@@](C)(CO)C[C@@H]%10O)C(C)[C@@]9(O)[C@]7(C)[C@@H](O)CC6[C@]5(C)C8)C3=CC[C@H]4C2C)OC1(C)C` (stereo partly specified) has a TGI (KM20L2 colon) of 0.0669 µM, a TGI (M19-MEL melanoma) greater than 3.55 µM and a TGI (P388 leukemia) greater than 3.55 µM. It also gave a TGI (HOP-18 NSCLC) of 3.43 µM, a TGI (DMS 114 small cell lung) of 0.0942 µM and a TGI (SN12K1 renal) greater than 3.55 µM. For the same compound, the TGI (DLD-1 colon) was 0.652 µM and the TGI (P388/ADR leukemia) was 0.0266 µM.

`Cc1ccc([S+](c2ccccc2)c2cc(C)ccc2C)cc1` (stereo unspecified) showed a TGI (M19-MEL melanoma) greater than 100 µM, a TGI (HOP-18 NSCLC) of 26.4 µM and a TGI (DMS 114 small cell lung) of 13.8 µM. It also gave a TGI (DLD-1 colon) of 19.1 µM.

With `CC(=O)OCC1OC(N2C(=O)CC(N)=Nc3ccccc32)C(OC(C)=O)C(OC(C)=O)C1OC(C)=O` (stereo unspecified) the TGI (MDA-N) was greater than 100 µM.

With `CN(CCNC(=O)c1cn(C)c2c1ccc1cc(Cl)ccc12)CCNC(=O)c1cn(C)c2c1ccc1cc(Cl)ccc12` the TGI (MDA-N) was 3.41 µM.

`Oc1ccc(NCc2cc(O)ccc2O)cc1` showed a TGI (MDA-N) of 11.1 µM.

`COC[C@@H]1Cc2cc(OC)c3c(c2[C@H](c2ccc(OC)c(OC)c2)[C@H]1COC)OCO3` was tested, and the TGI (KM20L2 colon) was greater than 100 µM, the TGI (M19-MEL melanoma) was greater than 100 µM and the TGI (HOP-18 NSCLC) was greater than 100 µM. The TGI (DMS 114 small cell lung) was greater than 100 µM, the TGI (RXF-631 renal) was greater than 100 µM and the TGI (XF 498 CNS) was greater than 100 µM. It also gave a TGI (DLD-1 colon) greater than 100 µM.

Compound `C[As](C)SCC(NC(=O)CCC(N)C(=O)O)C(=O)NCC(=O)O.Cl.c1ccncc1` (stereo unspecified) has a TGI (MDA-N) of 1.51 µM.

With `O=CN(O)CC(=O)O.[Ni]` the TGI (MDA-N) was greater than 100 µM.

In the case of `Cc1ccc(NC(=O)CC(=O)n2nc(-c3ccccc3)c(N=Nc3ccccc3C(=O)O)c2-c2ccccc2)cc1`, the TGI (KM20L2 colon) is reported as greater than 100 µM, the TGI (M19-MEL melanoma) is reported as greater than 100 µM and the TGI (RXF-631 renal) is reported as greater than 100 µM. For the same compound, the TGI (DLD-1 colon) was greater than 100 µM.

`NS(=O)(=O)c1ccc(N=Nc2ccc(O)c(O)c2)cc1` showed a TGI (MDA-N) greater than 100 µM.

In the case of `OCCSCc1cc(Cl)cc(Cl)c1O`, the TGI (MDA-N) is reported as greater than 100 µM.

— PubChem BioAssay (NCI)
